We go through seven compounds from US20040029823A1, “Antisense oligonucleotide compositions and methods for the modulation of JNK proteins” (priority 1997, published 2004).

For one series, the system named is JNK1 mRNA. Briefly: Northern assay of JNK1 mRNA expression in A549 cells. As to conditions: for Normalized % Control / RNA % Control / RNA % Inhibition: JNK1 mRNA; for Normalized % Control: chemically modified oligonucleotides; for RNA % Control / RNA % Inhibition: 300 nM for 20 hours then 200 nM for 4 hours. Format: cell-based, human. The procedure:
(§1) In order to evaluate the activity of potential JNK-modulating oligonucleotides, human lung carcinoma cell line A549 (American Type Culture Collection, Rockville, Md. No. ATCC CCL-185) cells or other cell lines as indicated in the Examples, were grown and treated with oligonucleotides or control solutions as detailed below. After harvesting, cellular extracts were prepared and examined for specific JNK mRNA levels or JNK protein levels (i.e., Northern or Western assays, respectively). In all cases, “% expression” refers to the amount of JNK-specific signal in an oligonucleotide-treated cell relative to an untreated cell (or a cell treated with a control solution that lacks oligonucleotide), and “% inhibition” is calculated as
100%−% Expression =% Inhibition.
Northern Assays: The mRNA expression of each JNK protein was determined by using a nucleic acid probe specifically hybridizable thereto. Nucleic acid probes specific for JNK1, JNK2 and JNK3 are described in Examples 3, 4 and 5, respectively. The probes were radiolabelled by means well known in the art (see, e.g., Short Protocols in Molecular Biology, 2nd Ed., Ausubel et al., Eds., John Wiley & Sons, New York, 1992, pages 3-11 to 2-3-44 and 4-17 to 4-18; Ruth, Chapter 6 In: Methods in Molecular Biology, Vol. 26: Protocols for Oligonucleotide Conjugates, Agrawal, ed., Humana Press Inc., Totowa, N.J., 1994, pages 167-185; and Chapter 10 In: Molecular Cloning: A Laboratory Manual, 2nd Ed., Sambrook et al., Eds., pages 10.1-10.70). The blots were stripped and reprobed with a ^32P-labeled glyceraldehyde 3-phosphate dehydrogenase (G3PDH) probe (Clontech Laboratories, Inc., Palo Alto, Calif.) in order to confirm equal loading of RNA and to allow the levels of JNK transcripts to be normalized with regard to the G3PDH signals.
A549 cells were grown in T-75 flasks until 80-90% confluent. At this time, the cells were washed twice with 10 mL of media (DMEM), followed by the addition of 5 mL of DMEM containing 20 μg/mL of LIPOFECTIN™ (i.e., 1:1 (w/w) DOTMA/DOPE, Life Technologies, Gaithersburg, Md.; DOTMA=N-[1-(2,3-dioleyoxy)propyl]-N,N,N-trimethylammonium chloride; DOPE=dioleoyl phosphatidylethanolamine). The oligonucleotides were added from a 10 μM stock solution to a final concentration of 400 nM, and the two solutions were mixed by swirling the flasks. As a control, cells were treated with LIPOFECTIN™ without oligonucleotide under the same conditions and for the same times as the oligonucleotide-treated samples. After 4 hours at 37° C., the medium was replaced with fresh DMEM containing 10% serum. The cells were allowed to recover for 18 hours. Total cellular RNA was then extracted in guanidinium, subject to gel electrophoresis and transferred to a filter according to techniques known in the art (see, e.g., Chapter 7 In: Molecular Cloning: A Laboratory Manual, 2nd Ed., Sambrook et al., Eds., pages 7.1-7.87, and Short Protocols in Molecular Biology, 2nd Ed., Ausubel et al., Eds., John Wiley & Sons, New York, 1992, pages 2-24 to 2-30 and 4-14 to 4-29). Filters were typically hybridized overnight to a probe specific for the particular JNK gene of interest in hybridization buffer (25 mM KPO4, pH 7.4; 5×SSC; 5× Denhardt's solution, 100 μg/ml Salmon sperm DNA and 50% formamide) (Alahari et al., Nucl. Acids Res., 1993, 21, 4079). This was followed by two washes with 1×SSC, 0.1% SDS and two washes with 0.25×SSC, 0.1% SDS. Hybridizing bands were visualized by exposure to X-OMAT AR film and quantitated using a PHOSPHORIMAGER™ essentially according to the manufacturer's instructions (Molecular Dynamics, Sunnyvale, Calif.)
B. JNK1-specific probes: In initial screenings of a set of oligonucleotides derived from the JNK1 sequence (Table 2) for biological activity, a cDNA clone of JNK1 (Derijard et al., Cell, 1994, 76, 1025) was radiolabeled and used as a JNK1-specific probe in Northern blots. […]

The next series has as its system JNK1 protein. The experiment in a line: Western assay of JNK1 protein levels in A549 cells. Type of series: cell-based, human. The note with it: 300 nM for 20 hours then 200 nM for 4 hours. The procedure: as §1
Western Assays: A549 cells were grown and treated with oligonucleotides as described above. Cells were lysed, and protein extracts were electrophoresed (SDS-PAGE) and transferred to nitrocellulose filters by means known in the art (see, e.g., Chapter 18 In: Molecular Cloning: A Laboratory Manual, 2nd Ed., Sambrook et al., Eds., pages 18.34, 18.47-18.54 and 18.60-18.75)). The amount of each JNK protein was determined by using a primary antibody that specifically recognizes the appropriate JNK protein. The primary antibodies specific for each JNK protein are described in the appropriate Examples. The primary antibodies were detected by means well known in the art (see, e.g., Short Protocols in Molecular Biology, 2nd Ed., Ausubel et al., Eds., John Wiley & Sons, New York, 1992, pages 10-33 to 10-35; and Chapter 18 In: Molecular Cloning: A Laboratory Manual, 2nd Ed., Sambrook et al., Eds., pages 18.1-18.75 and 18.86-18.88) and quantitated using a PHOSPHORIMAGER™ essentially according to the manufacturer's instructions (Molecular Dynamics, Sunnyvale, Calif.).
F. Western Assays: In order to assess the effect of oligonucleotides targeted to JNK1 mRNAs on JNK1 protein levels, Western assays were performed essentially as described above in Example 2, with the following exception(s) and/or modification(s). A primary antibody that specifically binds to JNK1 (catalog No. sc-474-G) was purchased from Santa Cruz Biotechnology, Inc. (Santa Cruz, Calif.; other JNK1-specific antibodies are available from StressGen Biotechnologies, Inc., Victoria, BC, Canada; and Research Diagnostics, Inc., Flanders, N.J.). In this experiment, cells were grown and treated with oligonucleotide at 300 nM for the initial 20 hours and then at 200 nM for 4 hours. At t=48 h, aliquots were removed for Northern and Western analyses, and fresh media was added to the cells. Aliquots for analysis were also taken at t=72 h. The samples from t=48 h and t=72 h were analyzed using the Northern and Western assays described above.

A further series deals with MDA-MB-231 tumors. Briefly: MDA-MB-231 human breast adenocarcinoma tumors in nude mice. Format: in vivo. The note with it: MDA-MB-231 tumors, 25 mg/kg intravenous once daily. The text has this: Approximately 5×10^6 breast adenocarcinoma cells (cell line MDA-MB-231; American Type Culture Collection, Richmond, Va., No. ATCC HTB-26) were implanted subcutaneously in the right inner thigh of nude mice (n=6 for each of three sets of mice). Oligonucleotides ISIS 15346 (JNK1, SEQ ID NO: 16) and 15353 (JNK2, SEQ ID NO: 31) were suspended in saline and administered once daily to two sets of mice on the first day the tumor volume was about […]. A saline-only (0.9% NaCl) solution was given to a third set of animals as a control. Oligonucleotides were given by intravenous injection at a dosage of 25 mg/kg. Tumor size was measured and tumor volume was calculated on days 12, 19, 26 and 33 following tumor cell inoculation.

A further series concerns HUVEC. The experiment in a line: Apoptosis in HUVEC (percent hypodiploid cells, flow cytometry). Format: cell-based, human. The note with it: for effect on JNK2 oligonucleotide-induced cell death (apoptosis): HUVEC treated with JNK2 oligonucleotide plus the inhibitor.

Several values for one entry are separate records, joined by “and”; a condition that tells them apart may be missing. Equal values may be shown once. Read-outs that look alike come from different tables or passages of the source. Where a SMILES comes first, the peptide text is derived from it. The star is where a group is joined. e = 2'-O-(2-methoxyethyl) (MOE); [5mC] = 5-methylcytosine; Cbz = O=C(OCc1ccccc1)*; d = 2'-deoxy (DNA); CH2F = FC*

“15346 (antisense CTCTCTGTAGGCCCGCTTGG; sugars from the 5' end e5 d9 e6, [5mC] at 1, 3, 5, 16, all phosphorothioate, methylation of C not given here) [compound 15346]”: the results for the “Normalized % Control” value in the series with JNK1 mRNA (dose 100 nM) and in the series with JNK1 mRNA (dose 400 nM) were 22.6% and 11.0%, respectively. The “RNA % Control” value stood at 4.3% with JNK1 mRNA (t = 48 h) and 10.6% in the series with JNK1 mRNA (t = 72 h). Moreover, in the series with JNK1 mRNA (chemically modified derivatives of ISIS 12539, 400 nM (Table 5)), the “inhibition of JNK1 mRNA expression” value was “at least 88%”. Also, the entries for the “Protein % Control” value in the series with JNK1 protein (t = 48 h) and in the series on JNK1 protein (t = 72 h) were 42.7% and 25.7%, respectively. Further, the “tumor growth compared to the saline control” value in the series on MDA-MB-231 tumors is “inhibited tumor growth”.
“15351 (antisense CTCTCTGTAGGCCCGCTTGG; sugars from the 5' end e11 d9, [5mC] at 1, 3, 5, linkages o10 s9 (s phosphorothioate, o phosphodiester), methylation of C not given here) [compound 15351]”: the entries for the “Normalized % Control” value in the series with JNK1 mRNA (dose 100 nM) and in the series on JNK1 mRNA (dose 400 nM) were 45.1% and 39.8%, respectively. Also, the entries for the “RNA % Control” value with JNK1 mRNA (t = 48 h) and in the series on JNK1 mRNA (t = 72 h) were 26.9% and 46.1%, respectively. In addition, the “RNA % Inhibition” value is reported as 73.1% with JNK1 mRNA (t = 48 h) and 53.9% in the series on JNK1 mRNA (t = 72 h). Also, the entries for the “Protein % Control” value in the series with JNK1 protein (t = 48 h) and in the series with JNK1 protein (t = 72 h) were 52.4% and 37.0%, respectively.
As for `C[C@@H]1C[C@@H]([C@H](O)CC2CC(=O)NC(=O)C2)C(=O)[C@@H](C)C1` [cyclohexamide, reference compound], the “effect on JNK2 oligonucleotide-induced cell death (apoptosis)” value with HUVEC is recorded as “no effect”.
On the same count and under the same terms, with `COC(=O)C[C@H](NC(=O)[C@H](C)NC(=O)[C@@H](NC(=O)OCc1ccccc1)C(C)C)C(=O)CF` [z-FAD.fmk, z-VAD.fmk, reference compound] (Cbz-Val-Ala-Asp(OMe)-CH2F) the entry was “decreased”.
Regarding “CTTTCCGTTGGACCCCTGGG (phosphorothioate, 2'-MOE gapmer, further chemistry not given here) [ISIS 18076, scrambled control for ISIS 15346; 2′-methoxyethoxy gapmer, phosphorothioate throughout, reference compound]”, the “percent hypodiploid cells (a measure of apoptosis)” value (from here on “percent hypodiploid cells”) in the series on HUVEC is 8% and 10% and 11%.
For the compound “C^ST^SC^ST^SC^ST^SG^ST^SA^SG^SG^SC^SC^SC^SG^SC^ST^ST^SG^SG (antisense CTCTCTGTAGGCCCGCTTGG; DNA, all phosphorothioate, methylation of C not given here) [ISIS 15346, JNK1 gapmer: P═S, 2′-MOE wings; P═S, 2′-deoxy core]”, the “percent hypodiploid cells” value with HUVEC (HUVEC, Oligo + Cyclohexamide) is 8%; in the series on HUVEC (HUVEC, Oligo + TNFa (10 ng/ml)), 14%; with HUVEC (HUVEC, Oligo + z-VAD.fmk), 5%; with HUVEC (HUVEC, Oligo alone), 13%.
With “GTGCGCGCGAGCCCGAAATC (phosphorothioate, 2'-MOE gapmer, further chemistry not given here) [ISIS 18078, scrambled control for ISIS 15353; 2′-methoxyethoxy gapmer, phosphorothioate throughout, reference compound]”, the “percent hypodiploid cells” value in the series with HUVEC is 11% and 12% and 9%.
